Molecules are shown by their SMILES. Where two headings read alike, the source gives them in different places. Some results are limits rather than exact numbers.

Assay [1] deals with Mycosphaerella graminicola; Anamorph: Septoria tritici. Description: Leaf blotch of wheat (SEPTTR) disease control on wheat seedlings. Conditions: Zymoseptoria tritici, High volume application, 100 ppm. In kind it is in vivo. Here is the method:
Technical grades of materials were dissolved in acetone, which were then mixed with nine volumes of water containing 110 ppm Triton X-100. The fungicide solutions were applied onto wheat seedlings using an automated booth sprayer to run-off. All sprayed plants were allowed to air dry prior to further handling. All fungicides were evaluated using the aforementioned method for their activity vs. all target diseases. Wheat leaf blotch and brown rust activity were also evaluated using track spray applications, in which case the fungicides were formulated as EC formulations, containing 0.1% Trycol 5941 in the spray solutions. Wheat plants (variety Yuma) were grown from seed in a greenhouse in 50% mineral soil/50% soil-less Metro mix until the first leaf was fully emerged, with 7-10 seedlings per pot. These plants were inoculated with an aqueous spore suspension of Septoria tritici either prior to or after fungicide treatments. After inoculation the plants were kept in 100% relative humidity (one day in a dark dew chamber followed by two to three days in a lighted dew chamber at 20° C.) to permit spores to germinate and infect the leaf. The plants were then transferred to a greenhouse set at 20° C. for disease to develop. When disease symptoms were fully expressed on the 1st leaves of untreated plants, infection levels were assessed on a scale of 0 to 100 percent disease severity. Percent disease control was calculated using the ratio of disease severity on treated plants relative to untreated plants.

The test system of assay [2] is Puccinia triticina; Synonym: Puccinia recondite f. sp. tritici. In words: Wheat brown rust (PUCCRT) disease control on wheat seedlings. It is filed as in vivo. Conditions: Puccinia triticina, High volume application, 100 ppm. Here is the method:
Technical grades of materials were dissolved in acetone, which were then mixed with nine volumes of water containing 110 ppm Triton X-100. The fungicide solutions were applied onto wheat seedlings using an automated booth sprayer to run-off. All sprayed plants were allowed to air dry prior to further handling. All fungicides were evaluated using the aforementioned method for their activity vs. all target diseases. Wheat leaf blotch and brown rust activity were also evaluated using track spray applications, in which case the fungicides were formulated as EC formulations, containing 0.1% Trycol 5941 in the spray solutions. Wheat plants (variety Yuma) were grown from seed in a greenhouse in 50% mineral soil/50% soil-less Metro mix until the first leaf was fully emerged, with 7-10 seedlings per pot. These plants were inoculated with an aqueous spore suspension of Puccinia triticina either prior to or after fungicide treatments. After inoculation the plants were kept in a dark dew room at 22° C. with 100% relative humidity overnight to permit spores to germinate and infect the leaf. The plants were then transferred to a greenhouse set at 24° C. for disease to develop. Fungicide formulation, application and disease assessment followed the procedures as described in the Example A.

[3] abbreviates: 24 h, 1 Day Protectant, read-out: SEPTTR 1DP disease control.
The mark [4] stands for this setting: 72 h, 3 Day Curative, read-out: SEPTTR 3DC disease control.
Setting [5] is: 24 h, 1 Day Protectant, read-out: PUCCRT 1DP disease control.
[6] abbreviates: 72 h, 3 Day Curative, read-out: PUCCRT 3DC disease control.

For `COc1ccnc(C(=O)N[C@H]2CCC[C@H](OCCCC(F)(F)F)[C@@H](OCCCC(F)(F)F)[C@H](C)OC2=O)c1OCOC(=O)C(C)C` [F100], the pest or weed control at 100 ppm in assay [1] (setting [3]), in assay [1] (setting [4]), in assay [2] (setting [5]) and in assay [2] (setting [6]) was 80 to 100% each time.
Turning to `COc1ccnc(C(=O)N[C@H]2CCC[C@H](OCC(C)C)[C@@H](Oc3ccc(C)cc3)[C@H](C)OC2=O)c1OCOC(=O)C(C)C` [F101], the pest or weed control at 100 ppm in assay [1] (setting [3]), in assay [1] (setting [4]), in assay [2] (setting [5]) and in assay [2] (setting [6]) was 80 to 100% throughout.
Regarding `CCCO[C@H]1[C@H](C)OC(=O)[C@@H](NC(=O)c2nccc(OC)c2OC(C)=O)CCC[C@@H]1Oc1ccccc1` [F102], the pest or weed control at 100 ppm in assay [1] (setting [3]), in assay [1] (setting [4]), in assay [2] (setting [5]) and in assay [2] (setting [6]) was 80 to 100% throughout.
As to `CCCCCO[C@H]1[C@H](C)OC(=O)[C@@H](NC(=O)c2nccc(OC)c2OC(C)=O)CCC[C@@H]1Oc1ccccc1` [F103], the pest or weed control at 100 ppm in assay [1] (setting [3]), in assay [1] (setting [4]), in assay [2] (setting [5]) and in assay [2] (setting [6]) was 80 to 100% in each case.
With `COc1ccnc(C(=O)N[C@H]2CCC[C@H](Oc3ccccc3)[C@@H](OC/C=C/C(F)(F)F)[C@H](C)OC2=O)c1O` [F104], the pest or weed control at 100 ppm was 80 to 100% in assay [1] (setting [3]), less than 0% in assay [1] (setting [4]), 80 to 100% in assay [2] (setting [5]) and less than 0% in assay [2] (setting [6]).
For the molecule `COc1ccnc(C(=O)N[C@H]2CCC[C@H](Oc3ccccc3)[C@@H](OCCCC(F)(F)F)[C@H](C)OC2=O)c1O` [F105], the pest or weed control at 100 ppm in assay [1] (setting [3]) is 80 to 100%; in assay [1] (setting [4]), 0 to 80%; in assay [2] (setting [5]), 80 to 100%; in assay [2] (setting [6]) it was less than 0%.
As for `COc1ccnc(C(=O)N[C@H]2CCC[C@H](Oc3ccccc3)[C@@H](OC/C=C/C(F)(F)F)[C@H](C)OC2=O)c1OCOC(C)=O` [F106], the pest or weed control at 100 ppm in assay [1] (setting [3]), in assay [1] (setting [4]), in assay [2] (setting [5]) and in assay [2] (setting [6]) was 80 to 100% throughout.
With `COc1ccnc(C(=O)N[C@H]2CCC[C@H](Oc3ccccc3)[C@@H](OCCCC(F)(F)F)[C@H](C)OC2=O)c1OCOC(C)=O` [F107], the pest or weed control at 100 ppm in assay [1] (setting [3]), in assay [1] (setting [4]), in assay [2] (setting [5]) and in assay [2] (setting [6]) was 80 to 100% in each case.
Consider `COc1ccnc(C(=O)N[C@H]2CCC[C@H](Oc3ccccc3)[C@@H](OCCCC(F)(F)F)[C@H](C)OC2=O)c1OCOC(=O)C(C)C` [F108], for which the pest or weed control at 100 ppm in assay [1] (setting [3]), in assay [1] (setting [4]), in assay [2] (setting [5]) and in assay [2] (setting [6]) was 80 to 100% throughout.
For the molecule `COc1ccnc(C(=O)N[C@H]2CCC[C@H](Oc3ccccc3)[C@@H](OCCCC(F)(F)F)[C@H](C)OC2=O)c1OC(C)=O` [F109], the pest or weed control at 100 ppm in assay [1] (setting [3]), in assay [1] (setting [4]), in assay [2] (setting [5]) and in assay [2] (setting [6]) was 80 to 100% each time.
For `COCCC(=O)Oc1c(OC)ccnc1C(=O)N[C@H]1CCC[C@H](Oc2ccccc2)[C@@H](OCCCC(F)(F)F)[C@H](C)OC1=O` [F110], the pest or weed control at 100 ppm in assay [1] (setting [3]), in assay [1] (setting [4]), in assay [2] (setting [5]) and in assay [2] (setting [6]) was 80 to 100% in each case.
Take `COc1ccnc(C(=O)N[C@H]2CCC[C@H](Oc3ccccc3)[C@@H](OCCCc3ccccc3)[C@H](C)OC2=O)c1O` [F111]: the pest or weed control at 100 ppm in assay [1] (setting [3]) was 0 to 80%; in assay [1] (setting [4]), 0 to 80%; in assay [2] (setting [5]), 80 to 100%; in assay [2] (setting [6]) it was less than 0%.
For the molecule `COc1ccnc(C(=O)N[C@H]2CCC[C@H](Oc3ccccc3)[C@@H](OCCCc3ccccc3)[C@H](C)OC2=O)c1OCOC(=O)C(C)C` [F112], the pest or weed control at 100 ppm in assay [1] (setting [3]), in assay [1] (setting [4]), in assay [2] (setting [5]) and in assay [2] (setting [6]) was 80 to 100% each time.
Regarding `COc1ccnc(C(=O)N[C@H]2CCC[C@H](Oc3ccc(C)cc3)[C@@H](Oc3ccc(C)cc3)[C@H](C)OC2=O)c1O` [F113], the pest or weed control at 100 ppm in assay [1] (setting [3]) was less than 0%; in assay [1] (setting [4]), 0 to 80%; in assay [2] (setting [5]), 0 to 80%; in assay [2] (setting [6]), 0 to 80%.
Turning to `CCCO[C@H]1[C@H](C)OC(=O)[C@@H](NC(=O)c2nccc(OC)c2O)CCC[C@@H]1OCCC` [F114], the pest or weed control at 100 ppm in assay [1] (setting [3]), in assay [1] (setting [4]), in assay [2] (setting [5]) and in assay [2] (setting [6]) was 80 to 100% throughout.
With `COc1ccnc(C(=O)N[C@H]2CCC[C@H](Oc3ccc(C)cc3)[C@@H](Oc3ccc(C)cc3)[C@H](C)OC2=O)c1OCOC(C)=O` [F115], the pest or weed control at 100 ppm in assay [1] (setting [3]) lay within 80 to 100%; in assay [1] (setting [4]) it was 0 to 80%; in assay [2] (setting [5]), 80 to 100%; in assay [2] (setting [6]) it was 0 to 80%.
As to `CCCO[C@H]1[C@H](C)OC(=O)[C@@H](NC(=O)c2nccc(OC)c2OCOC(C)=O)CCC[C@@H]1OCCC` [F116], the pest or weed control at 100 ppm in assay [1] (setting [3]), in assay [1] (setting [4]), in assay [2] (setting [5]) and in assay [2] (setting [6]) was 80 to 100% throughout.
In the case of `COc1ccnc(C(=O)N[C@H]2CCC[C@H](OCC3CC3)[C@@H](OCC3CC3)[C@H](C)OC2=O)c1O` [F117], the pest or weed control at 100 ppm in assay [1] (setting [3]) is less than 0%; in assay [1] (setting [4]) it was 80 to 100%; in assay [2] (setting [5]), 80 to 100%; in assay [2] (setting [6]), 80 to 100%.
As to `CCCO[C@H]1[C@H](C)OC(=O)[C@@H](NC(=O)c2nccc(OC)c2O)CCC[C@@H]1OC1CCCC1` [F118], the pest or weed control at 100 ppm in assay [1] (setting [3]) is 80 to 100%; in assay [1] (setting [4]), 0 to 80%; in assay [2] (setting [5]), 80 to 100%; in assay [2] (setting [6]) it was 80 to 100%.
As to `CCCO[C@H]1[C@H](C)OC(=O)[C@@H](NC(=O)c2nccc(OC)c2OCOC(C)=O)CCC[C@@H]1OC1CCCC1` [F121], the pest or weed control at 100 ppm in assay [1] (setting [3]), in assay [1] (setting [4]), in assay [2] (setting [5]) and in assay [2] (setting [6]) was 80 to 100% throughout.
On to `COc1ccnc(C(=O)N[C@H]2CCC[C@H](OC3CCCC3)[C@@H](OCC(C)C)[C@H](C)OC2=O)c1OCOC(C)=O` [F122], for which the pest or weed control at 100 ppm in assay [1] (setting [3]), in assay [1] (setting [4]), in assay [2] (setting [5]) and in assay [2] (setting [6]) was 80 to 100% in each case.
With `CCCO[C@H]1[C@H](C)OC(=O)[C@@H](NC(=O)c2nccc(OC)c2OCOC(=O)C(C)C)CCC[C@@H]1OC1CCCC1` [F123], the pest or weed control at 100 ppm in assay [1] (setting [3]), in assay [1] (setting [4]), in assay [2] (setting [5]) and in assay [2] (setting [6]) was 80 to 100% in each case.
`COc1ccnc(C(=O)N[C@H]2CCC[C@H](OC3CCCC3)[C@@H](OCC(C)C)[C@H](C)OC2=O)c1OCOC(=O)C(C)C` [F124]: the pest or weed control at 100 ppm in assay [1] (setting [3]), in assay [1] (setting [4]), in assay [2] (setting [5]) and in assay [2] (setting [6]) was 80 to 100% throughout.
`COc1ccnc(C(=O)N[C@H]2CCC[C@H](OC3CCCC3)[C@@H](OCCCC(F)(F)F)[C@H](C)OC2=O)c1OCOC(C)=O` [F125]: the pest or weed control at 100 ppm in assay [1] (setting [3]), in assay [1] (setting [4]), in assay [2] (setting [5]) and in assay [2] (setting [6]) was 80 to 100% each time.
As for `COc1ccnc(C(=O)N[C@H]2CCC[C@H](OC3CCCC3)[C@@H](OCCCC(F)(F)F)[C@H](C)OC2=O)c1OCOC(=O)C(C)C` [F126], the pest or weed control at 100 ppm in assay [1] (setting [3]), in assay [1] (setting [4]), in assay [2] (setting [5]) and in assay [2] (setting [6]) was 80 to 100% each time.

For the origin of these results see patent publication US9681664B2, “Macrocyclic picolinamides as fungicides” (Dow Agrosciences LLC, priority 2012, dated 2017).
